“And” between values parts separate entries of the source, which are not always exact repeats. Equal entries are not always repeated.
Tests used:
[1] = test system: splenocytes; experiment: IFN-gamma secreting splenocytes in mice vaccinated with […] peptides and challenged with B16-OVA; assay type: in vivo, C57BL/6 mice; details: 20 nmoles s.c., B16-OVA challenge; for No. IFN-γ secreting splenocytes per 10^6 splenocytes, Average: average of three samples; for No. IFN-γ secreting splenocytes per 10^6 splenocytes: individual samples, in vitro stimulation with SIINFEKL
Procedure: (§1) Each of 9 C57BL/6 mice (8-10 wks) were immunised subcutaneously with 20 nmoles of lipidated [P25]-Lys(Pam2Cys-Ser-Ser)-[[…]] ([…] disclosed as SEQ ID NO: 173) or non-lipidated [P25]-Lys-[[…]] ([…] disclosed as SEQ ID NO: 173) peptide in 100 μl volume of saline. In the case of lipidated peptide, lipid was attached between the two epitopes at the approximate centre of the molecule.
CTL-specific IFN-γ-secreting cells were enumerated by an ELISPOT assay modified from that of Murali-Krishna et al., Immunity 8, 177-187, 1998. Flat-bottom polyvinyl chloride microtiter plates (96-well: Dynatech) were coated overnight with 50 μl of rat anti-(mouse IFN-γ) antibody (clone R4-14a2) at 5 μg/ml in PBS. Unoccupied sites on the wells were then blocked by incubation for 1 h with 10 mg of bovine serum albumin/ml in PBS, and the plates were washed three times with PBS containing 0.05% Tween 20 (PBST). Twofold dilutions of spleen or lymph node cells in T-cell medium were then added to the wells, together with 5×10^5 irradiated (2,200 rads, ^60Co source) syngeneic spleen cells from unimmunized mice and 10 U of recombinant human interleukin-2 (Pharmingen, San Diego, Calif.)/well. Cells were incubated at 37° C. in 5% CO2 for 18 h in the presence or absence of the CTL peptide at a concentration of 1 μg of peptide/ml. Cells were then lysed and removed by rinsing the plates, initially with distilled water and then PBST. Then, 50 μl of a 1/500 dilution of biotinylated anti-(mouse IFN-γ) antibody (clone XMG 1.2; Pharmingen) was added, and the plates were incubated at room temperature for 2 h. Plates were again washed, and 50 μl of streptavidin-alkaline phosphatase (Pharmingen; 1/400 dilution in 5 mg of bovine serum albumin/ml of PBST) was added to each well; the mixtures were then incubated for a further 2 h. […] When blue-green spots had developed, the plates were washed with water and dried, and the spots were counted with the aid of an inverted microscope.
The ability of the lipopeptide vaccine containing the ovalbumin CTL epitope ([…]) (SEQ ID NO: 173) to induce protection against melanoma cells expressing this CTL epitope (B16-OVA cells) was assessed. IFN-γ production was determined in mice inoculated with lipopeptide comprising a CDV-F T-helper epitope (P25) and a CTL epitope ([…]) (SEQ ID NO: 173) of ovalbumin linked via the epsilon amino group of an internal lysine residue positioned between said epitopes to Pam2Cys (i.e. the peptide [P25]-Lys(Pam2Cys-Ser-Ser)-[[…]] ([…] disclosed as SEQ ID NO: 173) listed in FIG. 2 and based upon SEQ ID NO: 174). […] (SEQ ID NO: 173) and the number of IFN-γ producing cells per 1,000,000 splenocytes was measured.

[2] = test system: B16-OVA cells; experiment: Protection against B16-OVA melanoma challenge (tumour growth); assay type: in vivo, C57BL/6 mice; details: 20 nmoles s.c., 2×10^5 B16-OVA cells 14 days later
Description: FIG. 13 is a graphical representation showing protection against B16 melanoma with lipopeptide vaccination. C57BL/6 mice were vaccinated with 20 nmoles lipidated peptide [P25]-Lys(Pam2Cys-Ser-Ser)-[[…]] ([…] disclosed as SEQ ID NO: 173) (open circles), non-lipidated peptide [P25]-Lys-[[…]] ([…] disclosed as SEQ ID NO: 173) (open triangles) or with PBS (open squares) subcutaneously in the base of the tail. Mice were then challenged s.c. on the back 14 days later with 2×10^5 B16-OVA cells (n=6 per group) and tumour growth monitored as described (Anraku, et al., J Virol. 76; 3791-3799, 2002).
as §1
14 days after inoculation with non-lipidated [P25]-Lys-[[…]] ([…] disclosed as SEQ ID NO: 173) or lipidated peptide [P25]-Lys(Pam2Cys-Ser-Ser)-[[…]] […] Growing tumors were monitored, and the animals were sacrificed when tumor size reached 15 by 15 mm. Mean tumor area was calculated for each treatment group at the indicated number of days after the tumor challenge.

[3] = test system: Lewis Lung tumour cells transfected with ovalbumin; experiment: Therapeutic treatment of Lewis Lung tumour expressing ovalbumin (tumour incidence and survival); assay type: in vivo, mice; details: 20 nmoles s.c. 4 and 11 days after tumour cells; versus non-lipidated peptide or PBS
Procedure: FIG. 14 is a graphical representation showing therapeutic treatment of Lewis Lung tumour with a lipopeptide immunogen, as determined by the percentage of animals that remain tumor free following immunization. Mice were injected with 3×10^4 Lewis Lung tumour cells that had been transfected with ovalbumin and therefore expressed the CTL epitope […] (SEQ ID NO: 173) [Nelson et al. J Immunol. 166: 5557-5566, 2001]. Four days after receiving tumour cells, animals were inoculated with 20 nmoles lipidated peptide [P25]-Lys(Pam2Cys-Ser-Ser)-[[…]] ([…] disclosed as SEQ ID NO: 173) (open circles), non-lipidated peptide [P25]-Lys-[[…]] […] Animals were monitored for tumour incidence; animals were euthanased when tumour area exceeded 100 mm^2.
FIG. 15 is a graphical representation showing therapeutic treatment of Lewis Lung tumour with a lipopeptide immunogen, as determined by measuring survival of animals following immunization. […] Animals were monitored for survival; animals were euthanased when tumour area exceeded 100 mm^2.
Mice were injected with 3×10^4 Lewis Lung tumour cells that had been transfected with ovalbumin and therefore expressed the CTL epitope (Nelson et al., J Immunol. 166: 5557-5566, 2001). […] Animals were monitored for tumour incidence and survival; animals were euthanased when tumour area exceeded 100 mm^2.

[4] = test system: syngeneic spleen cells pulsed with the CTL determinant; details: mouse
[5] = test system: Mem 71 influenza virus; details: in vivo
[6] = test system: D1 cells; experiment: Maturation of D1 dendritic cells (surface MHC class II, flow cytometry); assay type: cell-based, BALB/c mouse; details: D1 cells, overnight incubation, 0.45 nmoles/mL; LPS positive control

Compound: [P25]-Lys(Pam2Cys-Ser-Ser)-[SIINFEKL]: peptide [P25]-Lys-[SIINFEKL] and a lipid of the Formula (IV) conjugated to the epsilon-amino group of the internal lysine (KLIPNASLIENCTKAELKSIINFEKL; Pam2Cys-Ser-Ser lipid on internal lysine)
- No. IFN-γ secreting splenocytes per 10^6 splenocytes, Average [1]: 227 per 10^6 splenocytes
- No. IFN-γ secreting splenocytes per 10^6 splenocytes [1]: 284 per 10^6 splenocytes and 205 per 10^6 splenocytes and 192 per 10^6 splenocytes
- tumour growth (in words) ([2]; over a 15 day period): No tumour growth
- percentage of animals with fewer lesions developing (tumour free) [3]: significantly higher
- survival [3]: survived for longer

Compound: CCCCCCCCCCCCCCCC(=O)N[C@@H](CSCC(COC(=O)CCCCCCCCCCCCCCC)OC(=O)CCCCCCCCCCCCCCC)C(=O)N[C@@H](CO)C(=O)N[C@@H](CO)C(=O)NCCCC[C@H](NC(=O)[C@H](CO)NC(=O)[C@H](CCCCN)NC(=O)[C@H](CC(C)C)NC(=O)[C@H](CCC(=O)O)NC(=O)[C@@H](NC(=O)CNC(=O)[C@H](CCCCN)NC(=O)[C@@H](NC(=O)[C@H](CCC(N)=O)NC(=O)[C@H](Cc1ccccc1)NC(=O)[C@H](CCCNC(=N)N)NC(=O)[C@H](CC(N)=O)NC(=O)[C@H](CC(N)=O)NC(=O)[C@H](CC(C)C)NC(=O)[C@H](C)N)[C@@H](C)CC)C(C)C)C(=O)N[C@H](C(=O)N[C@@H](Cc1ccc(O)cc1)C(=O)N[C@@H](CCC(N)=O)C(=O)N[C@@H](CCCNC(=N)N)C(=O)N[C@H](C(=O)N[C@@H](CCCNC(=N)N)C(=O)N[C@@H](C)C(=O)N[C@@H](CC(C)C)C(=O)N[C@H](C(=O)O)C(C)C)[C@@H](C)O)[C@@H](C)O (stereo partly drawn) [[Th]-Lys(Pam3Cys-Ser-Ser)-[CTL]]
- CTL determinant specific cytotoxicity (specific lysis) in vivo [4]: marked enhancement of specific lysis in vivo

Compound: KLIPNASLIENCTKAELKSIINFEKL [reference compound]
- No. IFN-γ secreting splenocytes per 10^6 splenocytes, Average [1]: 14 per 10^6 splenocytes
- No. IFN-γ secreting splenocytes per 10^6 splenocytes [1]: 18 per 10^6 splenocytes and 14 per 10^6 splenocytes and 10 per 10^6 splenocytes
- tumour size ([2]; 15 day period): greater than 75 mm^2

Compound: ALNNRFQIKGVELKSKTYQRTRALV [[Th]-Lys-[CTL]]
- reduction in viral load in the lungs compared to PBS alone [5]: 65%
- maturation of dendritic cells / up-regulation of MHC class II expression (comparative, in words) [6]: least effective

Source: patent US7833532B2, “Immunogenic lipopeptides comprising T-helper and cytotoxic T lymphocyte (CTL) epitopes” (The Council of The Queensland Institute of Medical Research, priority 2002, dated 2010)
